ChEMBL document CHEMBL4819085, “Dipyridyl-substituted thiosemicarbazone as a potent broad-spectrum inhibitor of metallo-β-lactamases” (Bioorg Med Chem, 2021)
pIC50: −log10 of the molar value. In brackets after ≈: the same amount, converted by molar mass. Activity calls are given as the source filed them. The rule behind the calls is not given here.

How the values were obtained:
Bacteria [1] = experiment: Inhibition of bacterial VIM-2 expressed in Escherichia coli BL21 (DE3) at 20 uM using meropenem as substrate incubated for 1 hr by spectrometry analysis relative to control
Klebsiella pneumoniae [2] = experiment: In vivo antibacterial activity against Klebsiella pneumoniae producing NDM-1 infected in mouse assessed as reduction in bacterial load in spleen at 2 mg/kg, ip in presence of meropenem; assay type: functional, organism-based
Escherichia coli [3] = experiment: Antibacterial activity against Escherichia coli producing NDM-1 assessed as fractional inhibitory concentration index incubated for 24 hrs in presence of meropenem by checkerboard assay; assay type: functional
Escherichia coli [4] = experiment: Potentiation of meropenem-induced antibacterial activity against Escherichia coli 24 assessed as fold reduction in meropenem MIC incubated for 24 hrs by broth microdilution method relative to meropenem alone; assay type: functional
Escherichia coli [5] = experiment: Antibacterial activity against Escherichia coli 04 assessed as reduction in bacterial growth incubated for 24 hrs by broth microdilution method; assay type: functional
[6] = molecular target: Metallo-beta-lactamase (Escherichia coli) (UniProt Q5U7L7); experiment: Inhibition of Escherichia coli VIM-2 assessed as potentiation of meropenem-induced antibacterial activity by measuring meropenem MIC incubated for 24 hrs by broth microdilution method
Bacteria [7] = experiment: Inhibition of bacterial L1 at 20 uM using meropenem as substrate incubated for 1 hr by spectrometry analysis relative to control
Escherichia coli [8] = experiment: Inhibition of Escherichia coli NDM-1 assessed as synergistic antibacterial activity at 4 ug/ml in presence of meropenem; conditions: dose 4.0 µg/ml
Escherichia coli [9] = experiment: Antibacterial activity against Escherichia coli producing NDM-1 assessed as zone of inhibition in presence of meropenem (reference value: 23.5 millimeter); assay type: functional
Escherichia coli [10] = experiment: Inhibition of Escherichia coli IMP-1 assessed as potentiation of meropenem-induced antibacterial activity by measuring meropenem MIC incubated for 24 hrs by broth microdilution method
Escherichia coli [11] = experiment: Inhibition of Escherichia coli NDM-1 assessed as bacterial growth rate in presence of ZnCl2 relative to control; design: scale not given: the % may be the effect or the level left
Klebsiella pneumoniae [12] = experiment: Antibacterial activity against Klebsiella pneumoniae assessed as reduction in bacterial growth incubated for 24 hrs by broth microdilution method; assay type: functional
[13] = (§1) Inhibition of bacterial NDM-1 expressed in Escherichia coli BL21 (DE3) using meropenem as substrate incubated for 1 hr by spectrometry analysis; design: species or system Bacteria
Bacteria [14] = experiment: as §1
Staphylococcus aureus = experiment: Antibacterial activity against methicillin-resistant Staphylococcus aureus assessed as reduction in bacterial growth incubated for 24 hrs by broth microdilution method; assay type: functional
Klebsiella pneumoniae [15] = experiment: Antibacterial activity against Klebsiella pneumoniae assessed as fractional inhibitory concentration index incubated for 24 hrs in presence of meropenem by checkerboard assay; assay type: functional
Klebsiella pneumoniae [16] = experiment: In vivo antibacterial activity against Klebsiella pneumoniae producing NDM-1 infected in mouse assessed as reduction in bacterial load in liver at 2 mg/kg, ip in presence of meropenem; assay type: functional, organism-based
Escherichia coli [17] = experiment: Antibacterial activity against Escherichia coli producing L1 assessed as fractional inhibitory concentration index incubated for 24 hrs in presence of meropenem by checkerboard assay; assay type: functional, organism-based
Escherichia coli [18] = experiment: Antibacterial activity against Escherichia coli 08 assessed as reduction in bacterial growth incubated for 24 hrs by broth microdilution method; assay type: functional
[19] = Binding affinity to Zn2+ ion assessed as UV absorption peak at 325 nm at 50 uM incubated for 5 mins in presence of ZnCl2 by spectrometry analysis
Escherichia coli [20] = experiment: Inhibition of Escherichia coli IMP-1 assessed as potentiation of meropenem-induced antibacterial activity by measuring fold reduction in meropenem MIC up to 8 ug/ml incubated for 24 hrs by broth microdilution method relative to meropenem alone; conditions: dose microg/ml <=8, time 24.0 hrs
Escherichia coli [21] = experiment: Antibacterial activity against Escherichia coli 06 assessed as reduction in bacterial growth incubated for 24 hrs by broth microdilution method; assay type: functional
Escherichia coli [22] = experiment: Potentiation of meropenem-induced antibacterial activity against Escherichia coli 08 assessed as meropenem MIC incubated for 24 hrs by broth microdilution method; assay type: functional
Escherichia coli [23] = experiment: Potentiation of meropenem-induced antibacterial activity against Escherichia coli 06 assessed as meropenem MIC incubated for 24 hrs by broth microdilution method; assay type: functional

CN(C(=S)NN=C(c1ccccn1)c1ccccn1)C1CCCCC1
inhibition (Bacteria [1]): > 90% | inhibition (Klebsiella pneumoniae [2]): Active | FIC (Escherichia coli [3]): 0.313 | fold change (FC) (Escherichia coli [4]): 2 | MIC (Escherichia coli [5]): 16 µg/mL (≈ 45.3 µM) | MIC [6]: 8 µg/mL | inhibition (Bacteria [7]): > 90% | inhibition (Escherichia coli [8]): Active | inhibition zone (IZ) (Escherichia coli [9]): 30.1 mm | MIC (Escherichia coli [10]): 16 µg/mL | Activity (Escherichia coli [11]): 90% | MIC (Klebsiella pneumoniae [12]): 32 µg/mL (≈ 90.5 µM) | pIC50 [13]: 7.68 | inhibition (Bacteria [14]): Dose-Dependent Effect | MIC (Staphylococcus aureus): 32 µg/mL (≈ 90.5 µM) | FIC (Klebsiella pneumoniae [15]): 0.313 | inhibition (Klebsiella pneumoniae [16]): Active | Activity (Escherichia coli [17]): inactive | MIC (Escherichia coli [18]): 16 µg/mL (≈ 45.3 µM) | Activity [19]: Active | fold change (FC) (Escherichia coli [20]): 8 | MIC (Escherichia coli [21]): 16 µg/mL (≈ 45.3 µM) | MIC (Escherichia coli [22]): 32 µg/mL | MIC (Escherichia coli [23]): 64 µg/mL
